Data reported in US9481659B2, “Selective heterocyclic sphingosine 1 phosphate receptor modulators” (Celgene International II SÀRL, priority 2011, dated 2016).
Where a name gives a salt, the structure may show the parent alone.

Each compound was assayed against S1P1/EDG1 (Homo sapiens, UniProt P21453) (assay: S1P1 CRE-bla CHOK1 reporter assay, inhibition of Forskolin induced cAMP). Details: agonist activity range; S1P1 CRE-bla CHOK1 cells, 2 μM Forskolin; read-out: S1P1 ACTIVITY.
Sequence of S1P1/EDG1 (P21453 whole entry): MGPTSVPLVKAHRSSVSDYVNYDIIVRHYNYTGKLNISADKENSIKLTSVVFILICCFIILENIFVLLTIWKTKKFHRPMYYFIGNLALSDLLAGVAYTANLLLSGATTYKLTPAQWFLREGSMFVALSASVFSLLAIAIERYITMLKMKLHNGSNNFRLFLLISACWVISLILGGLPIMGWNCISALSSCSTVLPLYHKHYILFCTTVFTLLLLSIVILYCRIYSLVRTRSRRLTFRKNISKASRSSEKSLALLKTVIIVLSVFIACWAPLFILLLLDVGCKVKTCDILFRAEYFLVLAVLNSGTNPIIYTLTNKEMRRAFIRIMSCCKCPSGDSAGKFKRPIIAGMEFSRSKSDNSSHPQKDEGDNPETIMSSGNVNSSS
Type: cell-based
Method: Generation of S1P1-Mediated Inhibition of cAMP Reporter Assay
A mammalian expression plasmid containing S1P1/EDG1 cloned into pcDNA3.1 was purchased from Missouri S&T cDNA Resource Centre. […] S1P1/pcDNA3.1 was transfected into the CRE-bla CHO K1 (Invitrogen) cell line, and stable single cell clones were selected using standard techniques.
S1P1 CRE-Bla CHOK1 Reporter Assay—Characterization of S1P1 Agonists
Cells were seeded into 384-well black wall/clear bottom plates at 10^4 cells/well/19.5 μl assay media (DMEM-phenol free, 0.5% charcoal/dextran stripped serum, 2 mM glutamine, 0.1 mM NEAA, 1 mM Na-Pyruvate, 25 mM Hepes) and incubated for 18 hrs at 37° C. in 5% CO2. Dose response curves (10-point) were generated in 10 mM Hepes, 0.1% Pluronic F127, in the presence of Forskolin. Cells were treated with 0.5 μl compound in the presence of 2 μM Forskolin for 4 hrs at 37° C. The FRET-based β-lactamase fluorescent substrate (LiveBLAzer™-FRET B/G Loading Kit CC4-AM; Invitrogen) was prepared according to manufacturer's directions, and incubated with cells for 2 hrs at room temperature.
Compound `CC(C)Oc1ccc(-c2nnc(-c3cccc4c3CCC[C@@H]4NCCS(C)(=O)=O)s2)cc1C#N` [Compound 297, (S)-2-isopropoxy-5-(5-(5-((2-(methylsulfonyl)ethyl)amino)-5,6,7,8-tetrahydronaphthalen-1-yl)-1,3,4-thiadiazol-2-yl)benzonitrile] has an EC50 of 0.5 to 5 nM. `CC(C)Oc1ccc(-c2nnc(-c3cccc4c3CCC[C@@H]4NC(=O)c3ccccn3)s2)cc1C#N` [Compound 243] was tested, and the EC50 was > 5 nM. Work on `CC(C)Oc1ccc(-c2nnc(-c3cccc4c3CC[C@H]4NCC(=O)N3CCOCC3)s2)cc1C#N` [Compound 25] yielded an EC50 of 0.05 to 0.5 nM. `CC(C)Oc1ccc(-c2ncc(-c3cccc4c3CC[C@H]4NCC(=O)O)s2)cc1C#N` [Compound 96, (R)-2-((4-(2-(3-cyano-4-isopropoxyphenyl)thiazol-5-yl)-2,3-dihydro-1H-inden-1-yl)amino)acetic acid] was tested, and the EC50 was 0.05 to 0.5 nM. Compound `COC(=O)CS(=O)(=O)N[C@@H]1CCc2c(-c3cnc(-c4ccc(OC(C)C)c(C#N)c4)s3)cccc21` [Compound 154, (R)-methyl 2-(N-(4-(2-(3-cyano-4-isopropoxyphenyl)thiazol-5-yl)-2,3-dihydro-1H-inden-1-yl)sulfamoyl)acetate] has an EC50 of 0.05 to 0.5 nM. For `CC(C)Oc1ccc(-c2ncc(-c3cccc4c3CC[C@H]4NS(C)(=O)=O)s2)cc1C#N` [Compound 111, (R)—N-(4-(2-(3-cyano-4-isopropoxyphenyl)thiazol-5-yl)-2,3-dihydro-1H-inden-1-yl)methanesulfonamide], the EC50 was 0.05 to 0.5 nM. Work on `CC(C)Oc1ccc(-c2ncc(-c3cccc4c3CC[C@H]4NS(=O)(=O)CCN3CCC(O)CC3)s2)cc1C#N` [Compound 146] yielded an EC50 of 0.5 to 5 nM. `CC(C)Oc1ccc(-c2ncc(-c3cccc4c3CC[C@H]4NS(=O)(=O)CCN3CC[C@@H](N)C3)s2)cc1C#N` [Compound 135] was tested, and the EC50 was > 5 nM. `CC(=O)N[C@@H]1CCCc2c(-c3nnc(-c4ccc(OC(C)C)c(C#N)c4)s3)cccc21` [Compound 231, (R)—N-(5-(5-(3-cyano-4-isopropoxyphenyl)-1,3,4-thiadiazol-2-yl)-1,2,3,4-tetrahydronaphthalen-1-yl) acetamide] gave an EC50 of 0.05 to 0.5 nM. `CC(C)Oc1ccc(-c2nnc(-c3cccc4c3CCC[C@@H]4NS(C)(=O)=O)s2)cc1C#N` [Compound 279, (S)—N-(5-(5-(3 cyano-4-isopropoxyphenyl)-1,3,4-thiadiazol-2-yl)-1,2,3,4-tetrahydronaphthalen-1-yl)methanesulfonamide] gave an EC50 of 0.05 to 0.5 nM. Work on `CC(C)Oc1ccc(-c2nnc(-c3cccc4c3CC[C@H]4NCC(=O)O)s2)cc1C#N` [Compound 27, (R)-2-((4-(5-(3-cyano-4-isopropoxyphenyl)-1,3,4-thiadiazol-2-yl)-2,3-dihydro-1H-inden-1-yl)amino)acetic acid] yielded an EC50 of 0.05 to 0.5 nM. Work on `CC(C)Oc1ccc(-c2nnc(-c3cccc4c3CC[C@H]4NC(=O)N3CC[C@H](O)C3)s2)cc1C#N` [Compound 54] yielded an EC50 of 0.05 to 0.5 nM. `CC(C)Oc1ccc(-c2ncc(-c3cccc4c3CC[C@H]4NC(=O)N3CC(O)C3)s2)cc1C#N` [Compound 171] showed an EC50 of 0.05 to 0.5 nM. With `CC(C)Oc1ccc(-c2nnc(-c3cccc4c3CCC[C@H]4NS(=O)(=O)CCO)s2)cc1C#N` [Compound 289, (R)—N-(5-(5-(3-cyano-4-isopropoxyphenyl)-1,3,4-thiadiazol-2-yl)-1,2,3,4-tetrahydronaphthalen-1-yl)-2-hydroxyethanesulfonamide] the EC50 was 0.05 to 0.5 nM. `CC(C)Oc1ccc(-c2nnc(-c3cccc4c3CCC[C@@H]4NCc3cccnc3)s2)cc1C#N` [Compound 271, (S)-2-isopropoxy-5-(5-(5-((pyridin-3-ylmethyl)amino)-5,6,7,8-tetrahydronaphthalen-1-yl)-1,3,4-thiadiazol-2-yl)benzonitrile] showed an EC50 of 0.5 to 5 nM. `CC(C)Oc1ccc(-c2nnc(-c3cccc4c3CCC[C@@H]4NCc3cnc[nH]3)s2)cc1C#N` [Compound 267] showed an EC50 of 0.5 to 5 nM. `CC(C)Oc1ccc(-c2nnc(-c3cccc4c3CCC[C@H]4NS(=O)(=O)CC(=O)O)s2)cc1C#N` [Compound 287, (R)-2-(N-(5-(5-(3-cyano-4-isopropoxyphenyl)-1,3,4-thiadiazol-2-yl)-1,2,3,4-tetrahydronaphthalen-1-yl)sulfamoyl)acetic acid] gave an EC50 of 0.05 to 0.5 nM. `CC(C)Oc1ccc(-c2nc(-c3cccc4c3CC[C@@H]4N(CCO)CCO)ns2)cc1C#N` [Compound 312, (S)-5-(3-(1-(bis(2-hydroxyethyl)amino)-2,3-dihydro-1H-inden-4-yl)-1,2,4-thiadiazol-5-yl)-2-isopropoxybenzonitrile hydrochloride] gave an EC50 of 0.5 to 5 nM. `CC(C)Oc1ccc(-c2nnc(-c3cccc4c3CC[C@H]4NCc3ncc[nH]3)s2)cc1C#N` [Compound 29, (R)-5-(5-(1-(((1H-imidazol-2-yl)methyl)amino)-2,3-dihydro-1H-inden-4-yl)-1,3,4-thiadiazol-2-yl)-2-isopropoxybenzonitrile] was tested, and the EC50 was 0.05 to 0.5 nM. `CC(C)Oc1ccc(-c2ncc(-c3cccc4c3CC[C@H]4NS(=O)(=O)CC(=O)O)s2)cc1C#N` [Compound 158, (R)-2-(N-(4-(2-(3-cyano-4-isopropoxyphenyl)thiazol-5-yl)-2,3-dihydro-1H-inden-1-yl)sulfamoyl)acetic acid] was tested, and the EC50 was < 0.05 nM. Work on `CC(C)Oc1ccc(-c2nnc(-c3cccc4c3CCC[C@H]4NC(=O)CO)s2)cc1C#N` [Compound 245, (R)—N-(5-(5-(3-cyano-4-isopropoxyphenyl)-1,3,4-thiadiazol-2-yl)-1,2,3,4-tetrahydronaphthalen-1-yl)-2-hydroxyacetamide] yielded an EC50 of 0.05 to 0.5 nM. `COC(=O)N[C@H]1CCCc2c(-c3nnc(-c4ccc(OC(C)C)c(C#N)c4)s3)cccc21` [Compound 240] was tested, and the EC50 was 0.05 to 0.5 nM. With `CC(C)Oc1ccc(-c2ncc(-c3cccc4c3CC[C@H]4NS(=O)(=O)CCC(=O)O)s2)cc1C#N` [Compound 160] the EC50 was < 0.05 nM. For `CC(C)Oc1ccc(-c2nc(-c3cccc4c3CC[C@@H]4N)ns2)cc1C#N` [Compound 307, (S)-5-(3-(1-amino-2,3-dihydro-1H-Inden-4-yl)-1,2,4-thiadiazol-5-yl)-2-isopropoxy benzonitrile hydrochloride], the EC50 was 0.5 to 5 nM. For `CC(C)Oc1ccc(-c2nnc(-c3cccc4c3CCC[C@@H]4NCc3ccccn3)s2)cc1C#N` [Compound 272], the EC50 was 0.5 to 5 nM. `CC(C)Oc1ccc(-c2nnc(-c3cccc4c3CCC[C@H]4NS(=O)(=O)CC(=O)N(C)C)s2)cc1C#N` [Compound 292, (R)-2-(N-(5-(5-(3-cyano-4-isopropoxyphenyl)-1,3,4-thiadiazol-2-yl)-1,2,3,4-tetrahydronaphthalen-1-yl)sulfamoyl)-N,N-dimethylacetamide] showed an EC50 of 0.05 to 0.5 nM. With `CC(C)Oc1ccc(-c2ncc(-c3cccc4c3CC[C@H]4NC(=O)N3CC[C@@H](N)C3)s2)cc1C#N` [Compound 178] the EC50 was 0.05 to 0.5 nM. Compound `CC(C)Oc1ccc(-c2nnc(-c3cccc4c3CC[C@H]4NC(=O)N3CC(C(=O)O)C3)s2)cc1C#N` [Compound 50] has an EC50 of 0.05 to 0.5 nM. Compound `CC(C)Oc1ccc(-c2nnc(-c3cccc4c3CCC[C@@H]4NC(=O)CCN)s2)cc1C#N` [Compound 253] has an EC50 of 0.5 to 5 nM. For `CC(C)Oc1ccc(-c2nnc(-c3cccc4c3CC[C@H]4NC(=O)CN)s2)cc1C#N` [Compound 9], the EC50 was 0.05 to 0.5 nM. `CC(C)Oc1ccc(-c2ncc(-c3cccc4c3CC[C@H]4NS(=O)(=O)CCN3CCNCC3)s2)cc1C#N` [Compound 151] was tested, and the EC50 was > 5 nM. With `CNC(=O)CS(=O)(=O)N[C@@H]1CCCc2c(-c3nnc(-c4ccc(OC(C)C)c(C#N)c4)s3)cccc21` [Compound 294] the EC50 was 0.05 to 0.5 nM.
